Assay results reported in patent US9278067B2, “Encapsulation of plasmid DNA (lipogenes™) and therapeutic agents with nuclear localization signal/fusogenic peptide conjugates into targeted liposome complexes” (Regulon, Inc., priority 2000, dated 2016).

Legend:
[1] = pH 7.4; cited from earlier work
[2] = system: K562 human erythroleukemia cell cultures; test: Transfection of K562 cells with plasmid pCMVβ, beta-galactosidase reporter expression; assay type: cell-based; details: FIG. 2
complement system = details: cited from earlier work
isolated lysosomes = details: low concentrations of lipid; cited from earlier work
luciferase = details: cited from earlier work
[3] = low concentrations (0.03-0.1 mM)
neuronal cell = details: cited from earlier work
[4] = cell culture; cited from earlier work
[5] = system: several different types of cells; details: with monovalent cationic liposomal formulations (DC-Chol and lipofectin); cited from earlier work
[6] = system: C-terminal fragments of the amyloid peptide; details: cited from earlier work

CC(C)CCC[C@@H](C)[C@H]1CC[C@H]2[C@@H]3CC=C4C[C@@H](OC(=O)NCCN(C)C)CC[C@]4(C)[C@H]3CC[C@]12C [DC-cholesterol, 3β[N—(N′,N′-dimethylaminoethane)carbamoyl]cholesterol]
charged fraction [1]: about 50% | cationic lipid compared by level of expression of the reporter beta-galactosidase gene ([2]; liposomes L2-L6 with DOPE): best cationic lipid

CCCCCCCCCCCCCCOCC(C[N+](C)(C)CCO)OCCCCCCCCCCCCCC.[Br-] (centres unmarked) [DMRIE, N-[1-(2,3-dimyristyloxy)propyl]-N,N-dimethyl-N-(2-hydroxyethyl) ammonium bromide]
charged fraction [1]: 100%

CCCCCCCCCCCCCCCCCCN(CCCCCCCCCCCCCCCCCC)C(=O)CNC(=O)C(CCCNCCCN)NCCCN (centres unmarked) [DOGS, Dioctadecylamidoglycylspermine]
complement activation (complement system): Strong complement activation

CCCCCCCC/C=C\CCCCCCCC(=O)OCC(C[N+](C)(C)C)OC(=O)CCCCCCC/C=C\CCCCCCCC.[Cl-] (centres unmarked) [DOTAP, N-(1-(2,3-dioleoyloxy)propyl)-N,N,N-trimethylammonium chloride]
charged fraction [1]: 100% | free activity of β-galactosidase of isolated lysosomes (membrane destabilization) (isolated lysosomes): striking increase in free activity of β-galactosidase | increase of antisense activity of anti-luciferase oligonucleotide (luciferase): over 100 fold

NCCCNCCCCNCCCN [Spermine]
transfection efficiency [3]: enhanced significantly transfection efficiency

Non-aggregated amyloid beta-peptide (1-40): Alzheimer's beta-amyloid peptide 1-40, non-aggregated
Properties: neuronal cell death (neuronal cell): Induces apoptotic neuronal

Protamine sulfate
efficiency of adenovirus-mediated gene transfer [4]: significantly increased | plasmid delivery into cells in vitro [5]: enhanced plasmid delivery

apoE2: apolipoprotein E isoform
inhibition of amyloid peptide fusogenic and aggregational properties [6]: potent inhibitors

apoE3: apolipoprotein E isoform
inhibition of amyloid peptide fusogenic and aggregational properties [6]: potent inhibitors

apoE4: apolipoprotein E isoform
inhibition of amyloid peptide fusogenic and aggregational properties [6]: not apoE4

poly(ethyleneimine)
complement activation (complement system): Strong complement activation

poly-L-lysine
efficiency of adenovirus-mediated gene transfer [4]: significantly increased

polyhistidine
DNA condensing reagent compared by level of expression of the reporter beta-galactosidase gene ([2]; 10 μg pCMVβ, polyK/polyR/polyH plus liposomes 7 nmoles/μg DNA): best DNA condensing reagent
